Legend:
[1] = system: mRNA transcript for the firefly (Photinus pyralis) luciferase gene; assay: In vivo efficacy in luciferase mouse model (bioluminescence, IVIS imager); conditions: tail vein injection; for Average % Inhibition of Bioluminescence: LNPs prepared from the cationic lipid with Luc siRNA, 3 mg Kg^−1, imaged 48 hours post dose, relative to pre-dose luminescence
Experimental: LNPs utilizing compound 4, in the nominal compositions described immediately above, were evaluated for in vivo efficacy and induction of inflammatory cytokines in a luciferase mouse model. The siRNA targets the mRNA transcript for the firefly (Photinus pyralis) luciferase gene (Accession #M15077). […] The in vivo luciferase model employs a transgenic mouse in which the firefly luciferase coding sequence is present in all cells. ROSA26-LoxP-Stop-LoxP-Luc (LSL-Luc) transgenic mice licensed from the Dana Farber Cancer. Institute are induced to express the Luciferase gene by first removing the LSL sequence with a recombinant Ad-Cre virus (Vector Biolabs). Due to the organo-tropic nature of the virus, expression is limited to the liver when delivered via tail vein injection. Luciferase expression levels in liver are quantitated by measuring light output, using an IVIS imager (Xenogen) following administration of the luciferin substrate (Caliper Life Sciences). Pre-dose luminescence levels are measured prior to administration of the RDVs. Luciferin in PBS (15 mg/mL) is intraperitoneally (IP) injected in a volume of 150 uL. After a four minute incubation period mice are anesthetized with isoflurane and placed in the IVIS imager. The RDVs (containing siRNA) in PBS vehicle were tail vein injected n a volume of 0.2 mL. Final dose levels ranged from 0.3 to 3 mg/kg siRNA. PBS vehicle alone was dosed as a control. Three hours post dose, mice were bled retro-orbitally to obtain plasma for cytokine analysis. Mice were imaged 48 hours post dose using the method described above. Changes in luciferin light output directly correlate with luciferase mRNA levels and represent an indirect measure of luciferase siRNA activity. In vivo efficacy results are expressed as % inhibition of luminescence relative to pre-dose luminescence levels. Plasma cytokine levels were determined using the Searchlight multiplexed cytokine chemoluminescent array (Pierce/Thermo). Systemic administration of the luciferase siRNA RDVs decreased luciferase expression in a dose dependant manner.

mKC = assay: Mouse in vivo cytokine mKC induction (plasma, Searchlight multiplexed cytokine array); conditions: RDVs containing luciferase siRNA; plasma 3 hours post dose; relative to PBS control
Experimental: (§1) FIG. 2: Mouse in vivo Cytokine mKC Induction 3 hour post injection. LNPs utilizing compound 4, in the nominal compositions described immediately above, were evaluated for in vivo efficacy and induction of inflammatory cytokines in a luciferase mouse model. The siRNA targets the mRNA transcript for the firefly (Photinus pyralis) luciferase gene (Accession #M15077). […] The in vivo luciferase model employs a transgenic mouse in which the firefly luciferase coding sequence is present in all cells. ROSA26-LoxP-Stop-LoxP-Luc (LSL-Luc) transgenic mice licensed from the Dana Farber Cancer. Institute are induced to express the Luciferase gene by first removing the LSL sequence with a recombinant Ad-Cre virus (Vector Biolabs). Due to the organo-tropic nature of the virus, expression is limited to the liver when delivered via tail vein injection. Luciferase expression levels in liver are quantitated by measuring light output, using an IVIS imager (Xenogen) following administration of the luciferin substrate (Caliper Life Sciences). Pre-dose luminescence levels are measured prior to administration of the RDVs. […] In vivo efficacy results are expressed as % inhibition of luminescence relative to pre-dose luminescence levels. Plasma cytokine levels were determined using the Searchlight multiplexed cytokine chemoluminescent array (Pierce/Thermo). […]

IL-6 = assay: Mouse in vivo cytokine IL-6 induction (plasma, Searchlight multiplexed cytokine array); conditions: RDVs containing luciferase siRNA; plasma 3 hours post dose; relative to PBS control
Experimental: as §1, with “1:” for “2:”, “IL-6” for “mKC”

Row | Structure (SMILES) | Average % Inhibition of Bioluminescence [1] [%] | In vivo efficacy (decrease of luciferase expression) ([1]; RDVs containing luciferase siRNA, 0.3 to 3 mg/kg siRNA, 48 hours post dose) | Mouse plasma level of cytokine mKC (mKC) | Mouse plasma level of cytokine IL-6 (IL-6)
1 | CCCCCCCCOC[C@H](CN(C)C)OCCCCO[C@H]1CC[C@@]2(C)C(=CC[C@H]3[C@@H]4CC[C@H]([C@H](C)CCCC(C)C)[C@@]4(C)CC[C@@H]32)C1 [Compound 4, (2S)-2-{4-[(3β)-cholest-5-en-3-yloxy]butoxy}-N,N-dimethyl-3-(octyloxy)propan-1-amine] | 87 | Greater efficacy | minimal cytokine induction | minimal cytokine induction
2 | CCCCC/C=C\C/C=C\CCCCCCCCOCC(CN(C)C)OCCCCCCCCO[C@H]1CC[C@@]2(C)C(=CC[C@H]3[C@@H]4CC[C@H]([C@H](C)CCCC(C)C)[C@@]4(C)CC[C@@H]32)C1 (stereo partly shown) [Compound 12, S-Octyl CLinDMA, reference compound] | 76 | – | significantly increased | significantly increased

From patent US20120253032A1, “NOVEL CATIONIC LIPIDS WITH SHORT LIPID CHAINS FOR OLIGONUCLEOTIDE DELIVERY” (priority 2009, published 2012)
